Assay [1] deals with type B versus type A viruses. As to conditions: cited from earlier work.
In assay [2] the test system is influenza B virus infections. As to conditions: human, in vivo; cited from earlier work.
For the next assay, the system named is A(H1N1)pdm09 viruses. It counts as cell-based, influenza A(H1N1)pdm09 virus. As to conditions: read-out: Median EC50.
For a further assay, the system named is A(H3N2) viruses. It counts as cell-based, influenza A(H3N2) virus. As to conditions: read-out: Median EC50.
The next assay deals with B/Victoria viruses. It counts as cell-based, influenza B/Victoria lineage virus.
Another assay deals with type A viruses. As to conditions: cited from earlier work.
Assay [3] addresses A (H1N1)pdm09 neuraminidase (NA). It counts as biochemical, influenza A (H1N1)pdm09 virus. As to conditions: read-out: IC50 Median.
Assay [4] addresses A (H3N2) neuraminidase (NA) (Influenza A virus (H3N2), UniProt V9SU56). It counts as biochemical.
Assay [5] has as its target B/Victoria neuraminidase (NA). It counts as biochemical, influenza B/Victoria lineage virus.

Read-outs that look alike come from different tables or passages of the source.

For the compound `CCOC(=O)C1=C[C@@H](OC(CC)CC)[C@H](NC(C)=O)[C@@H](N)C1` [Oseltamivir, oseltamivir], the “lower activity against type B versus type A viruses” value in [1] is 47- to 80 fold. Besides, the “clinical effects against influenza B compared to influenza A virus infections” value in [2] is “reduced effects”.
As usually defined, the EC50 is the midpoint of the concentration-response curve. For `O=C1c2c(O)c(=O)ccn2N([C@@H]2c3ccccc3SCc3c2ccc(F)c3F)[C@@H]2COCCN12` [Baloxavir, baloxavir], the values for the EC50 with A(H1N1)pdm09 viruses, in the assay on A(H3N2) viruses and in the assay with B/Victoria viruses (read-out: Median EC50) were 0.8 nM, 0.58 nM and 4.06 nM, respectively. In addition, the “median EC50 for B/Victoria viruses, fold higher than influenza A subtypes” value in the assay on B/Victoria viruses is 5–7 fold. Moreover, the “elevated baloxavir EC50” value with type A viruses is listed as “• Treatment-emergent • Rarely as natural polymorphisms • Confer elevated baloxavir EC50 (4–112-fold)”. The effectiveness in treatment entry in assay [2] is given as “more effective than oseltamivir”.
As usually defined, the IC50 is the midpoint of a concentration-inhibition curve. `CCC(CC)[C@H](NC(C)=O)[C@@H]1[C@H](O)[C@@H](C(=O)O)C[C@H]1N=C(N)N` [Peramivir, peramivir]: the IC50 in [3] is 0.07 nM; in assay [4] (read-out: IC50 Mean ± SD) it was 0.09 ± 0.02 nM; in [4] (read-out: IC50 Median), 0.08 nM; in assay [4] (read-out: IC50 Range), 0.05 to 0.25 nM; in [5] (read-out: IC50 Mean ± SD), 0.35 ± 0.11 nM; in assay [5] (read-out: IC50 Median), 0.33 nM. For the same compound, in [5] (read-out: IC50 Range), the half-inhibitory concentration (IC50) fell in the range of 0.14 to 0.88 nM.

Source of the values: paper PMC12621569 (Antiviral research, 2025).
